Assay results taken from patent publication US20020035061A1, “COMPOSITIONS AND METHODS FOR TREATING INFECTIONS USING CATIONIC PEPTIDES ALONE OR IN COMBINATION WITH ANTIBIOTICS” (priority 1996, published 2002).
Read-outs that look alike come from different tables or passages of the source.

Experiments:
[1] = test system: mammalian red blood cells; conditions: 37° C., 1 hour
Method: Candidate cationic peptides may be further tested for their toxicity to normal mammalian cells. An exemplary assay is a red blood cell (RBC) (erythrocyte) hemolysis assay. Briefly, in this assay, red blood cells are isolated from whole blood, typically by centrifugation, and washed free of plasma components. A 5% (v/v) suspension of erythrocytes in isotonic saline is incubated with different concentrations of peptide analogue. […] After incubation for approximately 1 hour at 37° C., the cells are centrifuged, and the absorbance of the supernatant at 540 nm is determined. A relative measure of lysis is determined by comparison to absorbance after complete lysis of erythrocytes using NH4Cl or equivalent (establishing a 100% value). A peptide with <10% lysis at 100 μg/ml is suitable. Preferably, there is <5% lysis at 100 μg/ml. Such peptides that are not lytic, or are only moderately lytic, are desirable and suitable for further screening.
Cationic peptides are tested for toxicity towards eukaryotic cells by measuring the extent of lysis of mammalian red blood cells (RBC). Briefly, in this assay, red blood cells are separated from whole blood by centrifugation and washed free of plasma components. A 5% (v/v) washed red blood cell suspension is prepared in isotonic saline. An aliquot of peptide in formulation is then added and mixed in. After incubation at 37° C. for 1 hour with constant agitation, the solution is centrifuged and the supernatant measured for absorbance at 540 nm to detect released hemoglobin.
A combination of cationic peptide and antibiotic agent is tested for toxicity towards eukaryotic cells by measuring the extent of lysis of mammalian red blood cells. Briefly, red blood cells are separated from whole blood by centrifugation, washed free of plasma components, and resuspended to a 5% (v/v) suspension in isotonic saline. […] Following incubation with constant agitation at 37° C. for 1 hour, the solution is centrifuged, and the absorbance of the supernatant is measured at 540 nm, which detects released hemoglobin. […]

A. calcoaceticus = type: cell-based; conditions: A. calcoaceticus strain AC001
E. cloacae = type: cell-based; conditions: E. cloacae strain ECL007
E. coli = type: cell-based; conditions: for Peptide MIC values: agarose dilution
E. faecalis = type: cell-based
E. faecium = type: cell-based; conditions: for MIC: E. faecium strain EFM003
H. influenzae = test: Agarose dilution assay (MIC); type: cell-based; conditions: H. influenzae strain HIN002
K. pneumoniae = type: cell-based
P. aeruginosa = type: cell-based; conditions: for Peptide MIC values: agarose dilution
P. mirabilis = test: Agarose dilution assay (MIC); type: cell-based; conditions: P. mirabilis strain PM001
S. aureus = type: cell-based; conditions: for Peptide MIC values: agarose dilution
S. maltophilia = type: cell-based; conditions: S. maltophilia strain SMA001
S. marcescens = type: cell-based; conditions: for Peptide MIC values: agarose dilution
S. pneumoniae = test: Agarose dilution assay (MIC); type: cell-based; conditions: for Peptide MIC values: agarose dilution
S. pyogenes = test: Agarose dilution assay (MIC); type: cell-based; conditions: S. pyogenes strain SPY002
bacterial isolates = test: microbe, parasite or virus in culture; type: cell-based
[2] = test system: inherently resistant microorganisms; test: microbe, parasite or virus in culture; type: cell-based; conditions: S. aureus MRSA
[3] = test system: microorganisms with acquired resistance; test: microbe, parasite or virus in culture; type: cell-based; conditions: for Peptide MIC Alone: Piperacillin section; for FIC: peptide + Piperacillin
[4] = test system: MSSA (Smith, ATCC # 19640); test: In vivo efficacy, MSSA infection; parameters: species or system S. aureus; conditions: 18 mg/kg ip, formulation D, 60 min post-infection; end of eight day observation
[5] = test system: DoHH-2, B-cell cell lymphoma; test: Cell death by Cytotox (Promega) lactate dehydrogenase release; type: cell-based; conditions: LDH release
Method: (§1) In addition, APO-peptides and parent peptides are tested against a panel of cancer cell lines. Cell death is measured using the Cytotox (Promega) assay kit which measures the release of lactate dehydrogenase.
(§2) PBL, peripheral blood lymphocytes; HUVEC, human umbilical vein endothelial cells; H460,non-small lung tumor; K562, chronic myelogenous leukemia; DoHH-2, B-cell cell lymphoma; P388, lymphocytic leukemia; P388ADR, lymphocytic leukemia, multidrug resistant; MCF-7, breast carcinoma; MCF-7ADR, breast carcinoma, multidrug resistant.

[6] = test system: H460, non-small lung tumor; test: as above; type: cell-based; conditions: LDH release
Method: as §1, §2

[7] = test system: HUVEC, human umbilical vein endothelial cells; test: as above; type: cell-based; conditions: LDH release
Method: as §1, §2

[8] = test system: K562, chronic myelogenous leukemia; test: as above; type: cell-based; conditions: LDH release
Method: as §1, §2

MCF-7, breast carcinoma = test: as above; type: cell-based; conditions: LDH release
Method: as §1, §2

[9] = test system: MCF-7ADR, breast carcinoma, multidrug resistant; test: as above; type: cell-based; conditions: LDH release
Method: as §1, §2

[10] = test system: P388, lymphocytic leukemia; test: as above; type: cell-based; conditions: LDH release
Method: as §1, §2

[11] = test system: P388ADR, lymphocytic leukemia, multidrug resistant; test: as above; type: cell-based; conditions: LDH release
Method: as §1, §2

[12] = test system: PBL, peripheral blood lymphocytes; test: as above; type: cell-based; conditions: LDH release
Method: as §1, §2

P. vulgaris = test: Agarose dilution assay (MIC); type: cell-based
S. epidermidis = type: cell-based; conditions: S. epidermidis strain SE002

CC[C@H](C)[C@H](NC(=O)CNC(=O)[C@@H](NC(=O)[C@H](CCCCN)NC(=O)[C@H](CCCCN)NC(=O)[C@H](Cc1ccccc1)NC(=O)[C@H](CC(C)C)NC(=O)[C@H](CCCCN)NC(=O)[C@H](Cc1c[nH]c2ccccc12)NC(=O)[C@@H](N)CCCCN)[C@@H](C)CC)C(=O)NCC(=O)N[C@@H](C)C(=O)N[C@H](C(=O)N[C@@H](CC(C)C)C(=O)N[C@@H](CCCCN)C(=O)N[C@H](C(=O)N[C@@H](CC(C)C)C(=O)N[C@H](C(=O)N[C@H](C(=O)NCC(=O)N[C@@H](CC(C)C)C(=O)N1CCC[C@H]1C(=O)N[C@@H](C)C(=O)N[C@@H](CC(C)C)C(=O)N[C@@H](CCCCN)C(=O)N[C@@H](CC(C)C)C(=O)N[C@H](C(=O)N[C@@H](CCCCN)C(=O)O)[C@@H](C)O)[C@@H](C)O)[C@@H](C)O)C(C)C)C(C)C [MBI 28]
4.7%: % Lysis [1]

ILKKWPWWPWRRK [MBI 11E3CN]
128 µg/mL: Peptide MIC Alone (bacterial isolates; S. maltophilia 11, Piperacillin section)
2 µg/mL: MIC (E. faecium) | MIC (S. aureus; S. aureus strain SA010) | Piperacillin MIC + Peptide (bacterial isolates; S. maltophilia 11) | Peptide MIC + Piperacillin (bacterial isolates; S. marcescens SB1) | Peptide MIC + Piperacillin [2] | Peptide MIC + Piperacillin ([3]; S. marcescens SB1)
>128 µg/mL: MIC (E. cloacae) | MIC (H. influenzae) | MIC (P. mirabilis) | MIC (S. marcescens; S. marcescens strain SMS004) | MIC (S. pneumoniae; S. pneumoniae strain SBSPN2) | MIC (S. pneumoniae; S. pneumoniae strain SPN044) | Peptide MIC Alone (bacterial isolates; H. influenzae 1, Piperacillin section) | Peptide MIC Alone (bacterial isolates; H. influenzae 2, Piperacillin section) | Peptide MIC Alone (bacterial isolates; S. marcescens SB1, Piperacillin section) | Peptide MIC Alone ([3]; H. influenzae 1) | Peptide MIC Alone ([3]; H. influenzae 2) | Peptide MIC Alone ([3]; S. marcescens SB1)
3.6 µg/mL: LC50 ± S.E., DoHH-2 [5]
5.6 ± 2 µg/mL: LC50 ± S.E., MCF-7 (MCF-7, breast carcinoma)
5.3 ± 1 µg/mL: LC50 ± S.E., MCF-7 ADR [9]
7.9 ± 3 µg/mL: LC50 ± S.E., P388 ADR [11]
0.51: FIC (bacterial isolates; peptide + Piperacillin, S. maltophilia 11) | FIC ([2]; peptide + Piperacillin)
4 µg/mL: MIC (E. coli; E. coli strain ECO001) | Peptide MIC + Piperacillin (bacterial isolates; H. influenzae 1) | Peptide MIC Alone (bacterial isolates; S. aureus 19 MRSA, Piperacillin section) | Peptide MIC Alone ([2]; Piperacillin section)
1 µg/mL: Peptide MIC + Piperacillin (bacterial isolates; P. aeruginosa 23) | Peptide MIC + Piperacillin (bacterial isolates; S. aureus 19 MRSA) | Peptide MIC + Piperacillin ([3]; P. aeruginosa 23)
117 ± 7 µg/mL: LC50 ± S.E., HUVEC [7]
13.9 ± 3 µg/mL: LC50 ± S.E., P388 [10]
32 µg/mL: MIC (K. pneumoniae; K. pneumoniae strain KP002) | MIC (S. maltophilia) | Piperacillin MIC + Peptide (bacterial isolates; H. influenzae 1) | Piperacillin MIC + Peptide (bacterial isolates; P. aeruginosa 23) | Piperacillin MIC + Peptide (bacterial isolates; P. aeruginosa 32) | Peptide MIC Alone ([3]; A. calcoaceticus 3) | Peptide MIC + Piperacillin ([3]; P. aeruginosa 7) | Piperacillin MIC + Peptide ([3]; P. aeruginosa 23) | Peptide MIC Alone ([3]; S. maltophilia 3) | Peptide MIC Alone ([3]; S. maltophilia 4)
0.75: FIC ([3]; A. calcoaceticus 3) | FIC ([3]; S. maltophilia 3) | FIC ([3]; S. maltophilia 4)
64 µg/mL: MIC (P. aeruginosa; P. aeruginosa strain PA041) | Peptide MIC Alone (bacterial isolates; P. aeruginosa 23, Piperacillin section) | Peptide MIC Alone (bacterial isolates; P. aeruginosa 32, Piperacillin section) | Piperacillin MIC + Peptide (bacterial isolates; S. aureus 19 MRSA) | Peptide MIC + Piperacillin (bacterial isolates; S. maltophilia 11) | Peptide MIC + Piperacillin ([3]; H. influenzae 1) | Piperacillin MIC + Peptide ([3]; P. aeruginosa 7) | Peptide MIC Alone ([3]; P. aeruginosa 7) | Peptide MIC Alone ([3]; P. aeruginosa 23)
22 ± 11 µg/mL: LC50 ± S.E., PBL [12]
70%: % Survival [4]
1.00: FIC ([3]; P. aeruginosa 7)
0.38: FIC ([3]; H. influenzae 1)
16 µg/mL: MIC (A. calcoaceticus) | MIC (S. pyogenes) | Peptide MIC + Piperacillin (bacterial isolates; H. influenzae 2) | Piperacillin MIC + Peptide (bacterial isolates; S. marcescens SB1) | Piperacillin MIC + Peptide ([3]; A. calcoaceticus 3) | Peptide MIC + Piperacillin ([3]; H. influenzae 2) | Peptide MIC + Piperacillin ([3]; S. maltophilia 3) | Piperacillin MIC + Peptide ([3]; S. maltophilia 3) | Peptide MIC + Piperacillin ([3]; S. maltophilia 4) | Piperacillin MIC + Peptide ([3]; S. maltophilia 4) | Piperacillin MIC + Peptide ([3]; S. marcescens SB1)
0.26: FIC (bacterial isolates; peptide + Piperacillin, S. marcescens SB1) | FIC ([3]; S. marcescens SB1)
0.50: FIC (bacterial isolates; peptide + Piperacillin, S. aureus 19 MRSA)
0.63: FIC (bacterial isolates; peptide + Piperacillin, P. aeruginosa 32)
8 µg/mL: MIC (E. faecalis; E. faecalis strain EFS004) | Piperacillin MIC + Peptide (bacterial isolates; H. influenzae 2) | Peptide MIC + Piperacillin (bacterial isolates; P. aeruginosa 32) | Peptide MIC + Piperacillin ([3]; A. calcoaceticus 3) | Piperacillin MIC + Peptide ([3]; H. influenzae 1) | Piperacillin MIC + Peptide ([3]; H. influenzae 2)
0.31: FIC (bacterial isolates; peptide + Piperacillin, H. influenzae 2) | FIC ([3]; H. influenzae 2)
18 µg/mL: LC50 ± S.E., H460 [6]
9 µg/mL: LC50 ± S.E., K562 [8]
0.52: FIC (bacterial isolates; peptide + Piperacillin, H. influenzae 1)
0.27: FIC (bacterial isolates; peptide + Piperacillin, P. aeruginosa 23) | FIC ([3]; P. aeruginosa 23)

ILKKYPYYPYRRK [MBI 11A3CN]
32 µg/mL: MIC (S. aureus; S. aureus strain SA004)
128 µg/mL: Peptide MIC values (S. aureus; S. aureus MRSA9) | MIC (S. epidermidis)
>128 µg/mL: MIC (A. calcoaceticus) | MIC (E. cloacae) | MIC (E. coli; E. coli strain ECO002) | Peptide MIC values (E. coli; E. coli ATCC 25922) | Peptide MIC values (E. coli; E. coli ESS) | MIC (E. faecalis; E. faecalis strain EFS002) | Peptide MIC values (E. faecium; agarose dilution) | MIC (H. influenzae) | MIC (K. pneumoniae; K. pneumoniae strain KP001) | MIC (P. aeruginosa; P. aeruginosa strain PA002) | Peptide MIC values (P. aeruginosa; P. aeruginosa ATCC 27853) | Peptide MIC values (P. aeruginosa; P. aeruginosa NCTC 10662) | MIC (P. vulgaris; P. vulgaris strain SBPV1) | Peptide MIC values (P. vulgaris; agarose dilution, P. vulgaris ATCC 13315) | Peptide MIC values (S. aureus; S. aureus MRSA13) | Peptide MIC values (S. aureus; S. aureus MRSA17) | Peptide MIC values (S. aureus; S. aureus SA206) | MIC (S. maltophilia) | MIC (S. marcescens; S. marcescens strain SBSM2) | Peptide MIC values (S. marcescens; S. marcescens SM76) | Peptide MIC values (S. marcescens; S. marcescens SM82) | MIC (S. pneumoniae; S. pneumoniae strain SBSPN3) | Peptide MIC values (S. pneumoniae; S. pneumoniae 406LE8) | Peptide MIC values (S. pneumoniae; S. pneumoniae 60120) | Peptide MIC values (S. pneumoniae; S. pneumoniae ATCC 49619)
64 µg/mL: Peptide MIC values (E. coli; E. coli NCTC 10418) | MIC (E. faecium) | Peptide MIC Alone (bacterial isolates; E. coli SBECO1, Mupirocin section)
30 µg/mL: Mupirocin MIC + Peptide (bacterial isolates; E. coli SBECO1)
16 µg/mL: Peptide MIC values (S. aureus; S. aureus ATCC 29213)
>500 µg/mL: LC50 ± S.E., DoHH-2 [5] | LC50 ± S.E., H460 [6] | LC50 ± S.E., HUVEC [7] | LC50 ± S.E., K562 [8] | LC50 ± S.E., PBL [12]
8 µg/mL: Peptide MIC + Mupirocin (bacterial isolates; E. coli SBECO1)
>300 µg/mL: LC50 ± S.E., P388 [10] | LC50 ± S.E., P388 ADR [11]
0.43: FIC (bacterial isolates; peptide + Mupirocin, E. coli SBECO1)
